According to article PMC2854129, “Spadin, a Sortilin-Derived Peptide, Targeting Rodent TREK-1 Channels: A New Concept in the Antidepressant Drug Design” (PLoS Biology, 2010):

What was measured:
TREK-1 channel = test: Whole-cell patch-clamp, hippocampal CA3 pyramidal neurons in brain slices, wild-type mice; type: cell-based, mouse; settings: no aa; spadin n = 8, fluoxetine n = 5; mean ± SEM; unpublished data
TREK-1 [1] = test: Whole-cell patch-clamp, cultured hippocampal pyramidal neurons; type: cell-based, mouse
Method: Cortical neurons were prepared from 14 old mouse embryos, whereas hippocampal neurons were prepared from newborn mice. Briefly, dissected brain areas were dissociated and neurons were plated on polylysine-treated 35 or 60 mm dishes and maintained in culture in Neurobasal medium supplemented with B27, Glutamax, and antibiotics for 2 to 3 wk before to be used for electrophysiological or biochemical experiments.
Supplementary file pbio.1000355.s004.tif: Figure S4 Effects of spadin on cultured pyramidal neurons from hippocampus. (A) Cultured pyramidal neuron from hippocampus, with on top, the patch-clamp pipette. Neurons were chosen according to their morphology. (B) Current recorded in response to ramps of potential obtained in the various conditions indicated (aa, arachidonic acid: 10 µM; Spadin: 1 µM; Fluoxetine: 20 µM). Neurons were recorded in the whole-cell configuration of the patch-clamp technique. In voltage-clamp, ramps of potential from −90 mV to 70 mV were applied every 10 s. The % variation of the current amplitude was always measured at −50 mV. The currents were recorded in response to such ramps in control conditions and in the presence of a cocktail of potassium blockers suitable to isolate the TREK currents (10 mM tetraethyl ammonium (TEA), 3 mM 4-aminopyridine (4-AP), 50 nM charybdotoxin, 10 µM glibenclamide, 100 nM apamin). […] The blocks were reversible. (C) Time course of spadin and fluoxetine effects. Applications are indicated by the horizontal bars. (2.03 MB TIF) Click here for additional data file.

mice [2] = test: Forced Swimming Test (FST), mice; type: in vivo, mouse
Method: Porsolt forced swim test (FST). Mice (Janvier, France) were placed individually in cylinders (height: 30 cm, diameter: 15 cm) filled with 12 cm deep water (temperature: 22 ±1°C) for 6 min. The total period of immobility was recorded during the last 4 min.

mice [3] = test: Tail Suspension Test (TST), mice; type: in vivo, mouse; settings: 4-d fluoxetine 3 mg/kg, vs saline, p>0.05
Method: Tail suspension test (TST). Mice were suspended by the tail. […] The immobility time was recorded during a 6 min test session.

mice [4] = test: Novelty Suppressed Feeding test (NSF), mice; type: in vivo, mouse; settings: 4 d; spadin i.v. 10^−6 M, fluoxetine i.p. 3 mg/kg; vs saline
Method: Novelty–suppressed feeding test (NSF). NSF paradigm is a conflict test that elicits competing motivations: the drive to eat and the fear of venturing into the center of a bright arena. Latency to begin eating is used as an index of anxiety- and depression- like behavior. After 4 day treatment (saline or spadin, i.v.) and 24 hours food-deprivation, mice were presented with a food pellet placed in the center of a brightly plastic box (50 x 50 x 20 cm). Latency to begin eating was measured as previously described.

mice [5] = settings: mouse, in vivo, ip
Method: Supplementary file pbio.1000355.s006.tif: Figure S6 Mouse locomotion activity. To determine whether spadin induced a change in locomotor activity, mice (n = 8 per group) were injected with the saline solution or spadin (10^−5M in 100 µl bolus, i.p.) 30 min before starting the test session. Locomotor activity was monitored individually for 24 h using an infrared photobeam activity monitoring system (Imetronic, Pessac, France), which measured consecutive horizontal beam breaks. Testing was in transparent plastic cages (43×2 0×20 cm^3) with fresh bedding in a grid of 8 cm horizontal infrared beams. Locomotor activity was defined as breaking of consecutive photobeams. Mice were given 1 h habituation session before being treated with spadin or saline. Movements were recorded and totalized for each 5 min period during the first hour and then by 10 min time sections for the next 23 h. Six periods were pooled to obtain data for 1 h of time. Different movements were monitored: the coming-and-going between the back and the front of the cage, climbing, and other movements in the back or the front of the cage. Data are the mean value of 8 animals per condition, bars represent SEM. Mice were kept under standard laboratory conditions: 12∶12 light-dark cycle with free access to food and water during the experiment. […] (0.53 MB TIF) Click here for additional data file.

[6] = test system: corticosterone (HPA axis); test: Stress-induced serum corticosterone levels; type: in vivo, mouse; settings: fluoxetine i.p. 3 mg/kg, 30 min after 10 min tube restraint, vs saline; n = 10
Method: Mice were individually housed for at least 12 h before blood sample collection. Serum samples, collected in the morning, were obtained by retroorbital puncture before and 30 min after the end of a 10 min tube restraint. Levels of corticosterone were measured by radioimmunoassay using a commercially available kit (MP Biomedicals).

[7] = test system: BrdU-positive cells in mouse hippocampus; test: Hippocampal neurogenesis (BrdU labeling); type: in vivo
Method: Twenty-four hours after the injection of BrdU (120 mg per kg of body weight in a 300 µl bolus), mice were euthanized and transcardially perfused with 4% cold paraformaldehyde. Serial sections of the brains were cut (40 µm) throughout the entire hippocampus on a vibratome (Leica). Every sixth section throughout the hippocampus was processed for BrdU or DCX immunohistochemistry, as previously described. For each immunodetection, slides were first incubated overnight at 4°C with a mouse monoclonal anti-BrdU antibody (1∶200; Becton-Dickinson) or a goat anti-DCX (1∶400; Santa Cruz Laboratories). For chromogenic immunodetection, sections were then incubated for 1 h in biotin-conjugated species-specific secondary antibodies (1∶100; Vector Laboratories) followed by a peroxidase-avidin complex solution according to the manufacturer's protocol. The peroxidase activity of immune complexes was visualized with DAB staining using the VectaStain ABC kit (Vector Laboratories). […] All BrdU-labeled cells in the granular cell layer and SGZ were counted in each section (n = 10 and 5 mice per group) at 400× and 1,000× magnification under a light microscope (Olympus) by an experimenter blinded to the study code. […]

C13NJ cells = test: C13NJ wound-healing (cell migration) assay; type: cell-based; settings: 10 nM NT in serum free medium; without spadin, or (spadin line) with 1 µM spadin; unstimulated 4%±1%
Excerpt: A cell-free zone was created within a semi-confluent monolayer of microglial culture by scratching cells off with a pipette tip. We analyzed by time-lapse microscopy how cells repopulated the cell-free zone, as already described. Supplementary file pbio.1000355.s001.tif: Figure S1 […] wound-healing assay. A cell-free zone was created within a semi-confluent monolayer with a pipette tip. We analyzed by time-lapse microscopy how cells repopulated the cell-free zone. The 100% of migrating cells was calculated by stimulation of cell migration with 10% of Fetal Calf Serum (FCS). (0.13 MB TIF) Click here for additional data file.

TREK-1 [8] = biological target: T1, TREK-1 (Mus musculus, UniProt P97438); test: Competition binding, 125I-spadin, TREK-1 transfected COS-7 cell homogenates; parameters: expressed in transfected cells; host or cells: COS-7 cells, DEAE-dextran transfection; settings: competition, 10^−10 to 10^−5M
T1 sequence (P97438 1-426): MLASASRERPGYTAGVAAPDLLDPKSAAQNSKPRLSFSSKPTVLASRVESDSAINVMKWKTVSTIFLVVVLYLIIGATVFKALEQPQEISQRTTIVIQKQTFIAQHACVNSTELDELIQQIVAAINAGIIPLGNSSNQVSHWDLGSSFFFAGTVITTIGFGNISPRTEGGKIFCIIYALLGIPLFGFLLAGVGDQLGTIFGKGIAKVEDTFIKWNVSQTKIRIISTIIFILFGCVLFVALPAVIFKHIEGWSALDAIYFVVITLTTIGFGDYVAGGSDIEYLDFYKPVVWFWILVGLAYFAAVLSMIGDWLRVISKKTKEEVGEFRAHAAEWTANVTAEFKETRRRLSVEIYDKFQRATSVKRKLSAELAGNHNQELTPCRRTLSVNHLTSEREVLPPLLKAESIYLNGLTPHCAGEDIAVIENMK
Method: For competition experiments, homogenates from TREK-1 transfected COS-7 or C13NJ cells were incubated with 0.2 nM ^125I-spadin or ^125I-NT (200,000 cpm in 250 µl) iodinated and purified as previously described. Incubations were performed in 50 mM Tris-HCl, pH 7.4 containing 0.1% BSA in the presence of increasing concentrations of non-radioactive spadin or NT (10^−10 to 10^−5M). Incubations were terminated by addition of 2 ml of ice-cold binding buffer followed by filtration through cellulose acetate filters (Sartorius, Göttingen, Germany) and washing twice with 2 ml of ice-cold buffer. Radioactivity on filters was counted with a gamma-counter.

mice [9] = test: Elevated plus-maze; type: in vivo, mouse; settings: spadin i.p. 10^−5 M or diazepam i.p. 0.5 mg/kg, 30 min before test, vs saline; n = 10
Excerpt: Elevated plus-maze. The apparatus consisted of two open and two enclosed arms of the same size (45x5 cm) with walls 15 cm high. The arms, constructed of black acrylic, radiate from a common central platform (5x5 cm) to form a plus sign. Open arms were arranged opposite to one another, as were closed arms. The maze was elevated to a height of 45 cm above floor level. Each mouse was placed in the central platform facing one of the open arms. The number of entries into the open and closed arms and the time spent on the open and closed arms were recorded during a 5 min test period. Time spent in the unprotected open arms as well as the number of entries in open arms in relation to the total of arm entries are used as experimental indices of anxiety.

mice [10] = test: Light/dark exploration test; type: in vivo, mouse; settings: spadin i.p. 10^−5 M or diazepam i.p. 0.5 mg/kg, 30 min before test, vs saline; n = 10
Method: Light/dark exploration. The apparatus consisted of a cage (25X40X20 cm) divided into two compartments by a black partition containing a small opening that allows mouse to move from one compartment to the other. One compartment, comprising […] of the surface area, was made of white plastic and was brightly illuminated. The adjoining smaller compartment was black and dark. Mice were placed in the white compartment and allowed to move freely between the two chambers for 5 minutes. The number of transitions between the two compartments, time spent in the white chamber, and latency to the first transition were recorded. Mice tend to avoid the white compartment. Thus the measures of exploration in this area (time and entrances) were used as experimental indices of anxiety.

mice [11] = test: Staircase test; type: in vivo, mouse; settings: spadin i.p. 10^−5 M or diazepam i.p. 0.5 mg/kg, 30 min before test, vs saline; n = 10
Method: Stair case test. The apparatus comprised an enclosed staircase consisted of five identical steps (2.5 cm in height X 11 cm in width X 7.5 cm in length), each made of black plastic. The height of the walls was constant (12.5 cm above the stairs) along the entire length of the staircase. Each mouse was placed individually on the floor of the staircase with its back to the staircase. A step was considered climbed only if the mouse placed all four paws on it. Rearing was recorded when the mouse rose on its hind legs either on the step or against the wall. The number of steps ascended and the number of rearings made in a 3-min period were recorded. Results were expressed as ratio of rearing/step numbers.

CNCCC(Oc1ccc(C(F)(F)F)cc1)c1ccccc1 (stereo not shown) [fluoxetine]
inhibition of current recorded in presence of potassium blockers, peptide/drug alone (TREK-1 channel): 13.0%±3.8%
block of arachidonic acid-evoked current (TREK-1 [1]; 20 µM fluoxetine, 10 µM aa, at −50 mV): fully blocked
reversibility of block (TREK-1 [1]; spadin 1 µM and fluoxetine 20 µM): reversible
effect of subchronic treatment (mice [2]; 4-d fluoxetine 3 mg/kg, FST, vs saline, p>0.05): no effect
reduction of time of immobility, chronic treatment (mice [2]; 15 d, i.v. once a day, spadin 10^−6 M, fluoxetine 1 mg/kg, vs saline p<0.001, n = 8): around 30%
effect of subchronic treatment (mice [3]): no effect
latency to feed (mice [4]): no effect
locomotor activity (mice [5]): Neither spadin nor fluoxetine had any effect on mouse locomotion
reduction of stress-induced increase in corticosterone levels [6]: 59.1%
number of BrdU-positive cells ([7]; 4-d fluoxetine): no effect on neurogenesis
number of BrdU-positive cells ([7]; 15 d treatment, spadin 10^−5 M or fluoxetine, n = 5): significant increase in the number of BrdU-positive cells

neurotensin [NT]
number of cells that migrated, % of migrating cells in presence of 10% FCS (C13NJ cells): 35.1%±2.3%
displacement of 125I-spadin binding (TREK-1 [8]): unable to displace the binding of ^125I-spadin

CN1C(=O)CN=C(c2ccccc2)c2cc(Cl)ccc21 [diazepam]
time spent in the open arms (mice [9]): significantly reduced the time spent into the aversive open arms
light/dark transitions (mice [10]): significantly induced an increase in the number of light/dark transitions
rearing/step numbers ratio (mice [11]): decrease of the rearing/step numbers ratio
